The compounds below were run against T1, N-acylethanolamine-hydrolyzing acid amidase (Homo sapiens, UniProt Q02083) (assay: UPLC/MS Assay: NAAA protein preparation (10 ug) was pre-incubated with various concentrations of test compound or vehicle control in 100 mM NaH2PO4, 100 mM Tri Sodium Citrate Dehydrate, 0.1% Triton-X 100, 3 mM DTT, pH 4.5 for 30 min at 37° C. Duplicate samples were then incubated with 50 uM C17:1 10-cis-heptadecenoylethanolamide (Avanti Polar Lipids, Alabaster, Ala. USA) at 37° C. for 30 minutes. The reaction was terminated by the addition of 0.2 mL of cold methanol containing 1 nmol of heptadecanoic acid (NuChek Prep, Elysian, Minn. USA) as internal standard. Samples were then analyzed by UPLC/MS. Heptadecenoic and heptadecanoic acids were eluted on an Acquity UPLC BEH C18 column (50 mm length, 2.1 mm i.d., 1.7 um pore size, Waters) isocratically at 0.5 mL/min for 1.5 min with a solvent mixture of 95% methanol and 5% water, both containing 0.25% Acetic Acid and 5 mM Ammonium Acetate. The column temperature was 40° C. Electrospray ionization was in the negative mode, capillary voltage was 0.5 kV, […], desolvation temperature was 500° C. N2 was used as drying gas at a flow rate of 1000 L/hour and a temperature of 500° C. The [M-H]- ion was monitored in the selected-ion monitoring mode (m/z values: heptadecenoic acid 267.37, heptadecanoic acid 269.37). Calibration curves were generated using commercial heptadecenoic acid (NuCheck Prep). […]).
T1 sequence (Q02083 whole entry): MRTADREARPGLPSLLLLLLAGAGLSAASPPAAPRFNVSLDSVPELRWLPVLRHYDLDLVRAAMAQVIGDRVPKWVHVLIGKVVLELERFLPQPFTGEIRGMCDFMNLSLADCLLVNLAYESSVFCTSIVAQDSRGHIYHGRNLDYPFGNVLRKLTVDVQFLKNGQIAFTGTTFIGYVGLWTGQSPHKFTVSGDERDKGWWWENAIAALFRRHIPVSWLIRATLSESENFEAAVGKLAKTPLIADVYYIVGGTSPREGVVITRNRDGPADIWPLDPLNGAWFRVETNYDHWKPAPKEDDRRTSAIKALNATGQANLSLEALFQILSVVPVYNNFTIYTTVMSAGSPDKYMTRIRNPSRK

Row | SMILES | IC50 [nM]
1 | CC(OC(=O)N[C@H]1C(=O)O[C@H]1C)c1ccc(-c2ccccc2)cc1 (mixture of isomers) | 10

Each compound was assayed against T1, N-acylethanolamine-hydrolyzing acid amidase (assay: Fluorogenic Assay: The assay was run in Optiplate 96-wells black plates, in a total reaction volume of 200 μL. NAAA protein preparation (4.0 μg) was pre-incubated for 10 min with various concentrations of test compounds or vehicle control (5% DMSO) in 100 mM citrate/phosphate buffer (pH 4.5) containing 3.0 mM DTT, 0.1% Triton X-100, 0.05% BSA, 150 mM NaCl. N-(4-methyl-2-oxo-chromen-7-yl)-hexadecanamide was used as a substrate (5.0 μM) and the reaction carried over for 30 min at 37° C. The samples were then read in a Perkin Elmer Envision plate reader using an excitation wavelength of 360 nm and emission 460 nm.).

Row | SMILES | IC50 [nM]
2 | CC[C@@H]1OC(=O)[C@@H]1NC(=O)OCc1ccc(-c2ccccc2)cc1 (relative stereo) | 15
3 | CC(C)[C@H]1OC(=O)[C@@H]1NC(=O)OCc1ccc(-c2ccccc2)cc1 (relative stereo) | 23
4 | CC(C)(C)[C@@H]1OC(=O)[C@@H]1NC(=O)OCc1ccc(-c2ccccc2)cc1 (relative stereo) | 897
5 | CC[C@H]1OC(=O)[C@@H]1NC(=O)OCc1ccc(-c2ccccc2)cc1 (relative stereo) | 6
6 | CC(C)(C)[C@H]1OC(=O)[C@@H]1NC(=O)OCc1ccc(-c2ccccc2)cc1 (relative stereo) | 465
7 | CC(C)[C@@H]1OC(=O)[C@@H]1NC(=O)OCc1ccc(-c2ccccc2)cc1 (relative stereo) | 37

What follows are compounds tested against T2, N-acylethanolamine-hydrolyzing acid amidase (Rattus norvegicus, UniProt Q5KTC7) (assay: Enzymatic Assay: Lysosomal NAAA protein preparation were obtained by homogenizing male Sprague-Dawley rat lungs (Charles River) in 20 mM Tris-HCl buffer pH 7.4 containing 0.32M sucrose. Samples were centrifuged at 800×g for 15 minutes at 4° C. Supernatants were then centrifuged at 12,000 g for 30 minutes at 4° C. Pellets were then resuspended in PBS pH 7.4 and subjected to a freeze/thaw cycle at −80° C. The suspension was finally centrifuged at 105,000×g for 1 hour at 4° C. The supernatant was then used in the enzymatic assay.).
T2 sequence (Q5KTC7 whole entry): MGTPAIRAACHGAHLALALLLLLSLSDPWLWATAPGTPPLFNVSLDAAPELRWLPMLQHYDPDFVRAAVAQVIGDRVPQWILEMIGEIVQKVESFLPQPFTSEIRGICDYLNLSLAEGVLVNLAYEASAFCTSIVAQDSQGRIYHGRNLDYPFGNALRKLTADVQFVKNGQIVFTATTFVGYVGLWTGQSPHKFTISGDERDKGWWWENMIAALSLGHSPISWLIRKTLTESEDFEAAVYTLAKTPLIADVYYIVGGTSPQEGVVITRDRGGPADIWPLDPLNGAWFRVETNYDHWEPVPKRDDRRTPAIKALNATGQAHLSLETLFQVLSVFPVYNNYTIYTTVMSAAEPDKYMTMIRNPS

Row | SMILES | IC50 [nM]
8 | CC(OC(=O)N[C@H]1C(=O)O[C@H]1C)c1ccc(-c2ccccc2)cc1 (mixture of isomers) | 50
9 | C[C@@H]1OC(=O)[C@@H]1NC(=O)OCc1ccc(-c2ccc(C(F)(F)F)cc2)cc1 | 24

From ChEMBL document CHEMBL3886751, “Disubstituted beta-lactones as inhibitors of N-acylethanolamine acid amidase (NAAA)” (2016)
